Measured values: the supplement of paper PMC10307832

Assays:
Experiment in all cases: relative viability (nuclei count vs DMSO), 5 days (fraction); higher = more cells survive
[1] = compound: O=C(/C=C/c1ccccc1)NC(NC(=S)Nc1cccc2cccnc12)C(Cl)(Cl)Cl [Salubrinal] + Cc1nc(NC(=O)N2CCC[C@H]2C(N)=O)sc1-c1ccnc(C(C)(C)C(F)(F)F)c1 [Alpelisib] (partner 2 µM)
How it was run: (§1)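 Each reported value is a median over duplicate plates. It expresses relative viability: treated-well nuclei count divided by vehicle-well nuclei count. Lung cancer cell lines in 1536-well plates were dosed by pin tool a day after seeding, alone with one drug or with a fixed anchor-drug dose plus five library-drug doses (not always all listed) in √10 steps, and nuclei were counted after 5 days.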

[2] = compound: Cc1ccc2nc(NCCN)c3ncc(C)n3c2c1 + O=C(CCCCCCC(=O)Nc1ccccc1)NO [Vorinostat] (partner 1 µM)
How it was run: as §1

[3] = compound: Cc1ccc2nc(NCCN)c3ncc(C)n3c2c1 + Nc1ncn([C@H]2C[C@H](O)[C@@H](CO)O2)c(=O)n1 [Decitabine] (partner 2 µM)
How it was run: as §1

[4] = compound: O=C(/C=C/c1ccccc1)NC(NC(=S)Nc1cccc2cccnc12)C(Cl)(Cl)Cl [Salubrinal] + CS(=O)(=O)CCNCc1ccc(-c2ccc3ncnc(Nc4ccc(OCc5cccc(F)c5)c(Cl)c4)c3c2)o1 [Lapatinib] (partner 2 µM)
How it was run: as §1

Cell Line | relative viability ([1]; first compound 0.08 µM) | relative viability ([1]; first compound 0.253 µM) | relative viability ([1]; first compound 0.8 µM) | relative viability ([1]; first compound 2.53 µM) | relative viability ([1]; first compound 8 µM) | relative viability ([2]; first compound 0.04 µM) | relative viability ([2]; first compound 0.1265 µM) | relative viability ([2]; first compound 0.4 µM) | relative viability ([2]; first compound 1.265 µM) | relative viability ([2]; first compound 4 µM) | relative viability ([3]; first compound 0.04 µM) | relative viability ([3]; first compound 0.1265 µM) | relative viability ([3]; first compound 0.4 µM) | relative viability ([3]; first compound 1.265 µM) | relative viability ([3]; first compound 4 µM) | relative viability ([4]; first compound 0.08 µM) | relative viability ([4]; first compound 0.253 µM) | relative viability ([4]; first compound 0.8 µM) | relative viability ([4]; first compound 2.53 µM) | relative viability ([4]; first compound 8 µM)
LXF-289 | 1.13 | 0.956 | 1.13 | 1.08 | 0.966 | 0.765 | 0.639 | 0.795 | 0.629 | 0.806 | 0.388 | 0.409 | 0.365 | 0.353 | 0.423 | 0.984 | 0.778 | 0.913 | 0.931 | 0.804
NCI-H23 | 0.839 | 0.717 | 0.763 | 0.685 | 0.976 | 0.759 | 0.654 | 0.501 | 0.493 | 0.578 | 0.312 | 0.356 | 0.321 | 0.328 | 0.34 | 1.08 | 1.1 | 1.34 | 0.955 | 1.36
NCI-H322M | 0.783 | 0.849 | 0.863 | 0.788 | 0.739 | 0.991 | 0.86 | 0.957 | 1 | 1.09 | 0.715 | 0.715 | 0.707 | 0.748 | 0.812 | 0.606 | 0.589 | 0.669 | 0.657 | 0.517
NCI-H358 | 1.03 | 0.676 | 0.886 | 0.792 | 0.675 | 0.74 | 0.617 | 0.66 | 0.629 | 0.564 | 0.225 | 0.216 | 0.239 | 0.257 | 0.206 | 0.531 | 0.514 | 0.365 | 0.494 | 0.47
NCI-H460 | 0.615 | 0.358 | 0.433 | 0.419 | 0.451 | 0.74 | 0.7 | 0.708 | 0.683 | 0.631 | 0.479 | 0.494 | 0.5 | 0.501 | 0.434 | 1.6 | 0.445 | 1.76 | 0.948 | 0.75
NCI-H520 | 0.904 | 0.578 | 1.18 | 0.878 | 0.949 | 0.719 | 0.725 | 0.808 | 0.674 | 0.574 | 0.488 | 0.466 | 0.439 | 0.529 | 0.503 | 0.921 | 0.767 | 1.25 | 0.847 | 0.769
NCI-H596 | 0.55 | 0.426 | 0.441 | 0.572 | 0.528 | 0.674 | 0.714 | 0.609 | 0.668 | 0.588 | 1.02 | 0.967 | 0.979 | 0.887 | 0.897 | 1.05 | 1.02 | 1.21 | 1.08 | 0.887
NCI-H647 | 1.47 | 0.438 | 1.54 | 1.25 | 1.08 | 0.691 | 0.384 | 0.571 | 0.492 | 0.328 | 0.508 | 0.362 | 0.43 | 0.421 | 0.335 | 1.31 | 0.687 | 1.31 | 1.2 | 0.829
NCI-H650 | 1.29 | 1.14 | 1.14 | 1.11 | 1.04 | 0.584 | 0.461 | 0.351 | 0.534 | 0.409 | 0.332 | 0.326 | 0.31 | 0.269 | 0.331 | 0.696 | 0.84 | 1.42 | 1.05 | 0.822
NCI-H661 | 0.572 | 0.864 | 0.937 | 0.845 | 0.686 | 0.752 | 0.778 | 0.748 | 0.785 | 0.834 | 0.559 | 0.562 | 0.56 | 0.513 | 0.552 | 0.609 | 0.497 | 0.248 | 0.467 | 0.412
NCI-H727 | 0.768 | 0.453 | 0.63 | 0.602 | 0.561 | 1.3 |  | 1.13 | 1.18 | 1.04 | 0.976 |  | 0.995 | 0.84 | 0.797 | 1.01 | 0.848 | 0.899 | 0.812 | 0.903
NCI-H838 | 1.03 | 0.629 | 0.969 | 1.01 | 0.942 | 0.8 | 0.685 | 0.685 | 0.708 | 0.61 | 0.494 | 0.461 | 0.428 | 0.44 | 0.427 | 1.1 | 0.914 | 1.23 | 1.03 | 0.674
NCI-H1355 | 0.955 | 0.942 | 0.884 | 0.852 | 0.779 | 0.721 | 0.599 | 0.633 | 0.634 | 0.671 | 0.398 | 0.364 | 0.345 | 0.356 | 0.367 | 1.09 | 1.03 | 0.996 | 1.01 | 1.03
NCI-H1395 | 1.19 | 1.39 | 0.999 | 1.08 | 0.911 | 0.891 | 0.765 | 0.662 | 0.651 | 0.56 | 0.616 | 0.708 | 0.713 | 0.669 | 0.607 | 0.953 | 0.973 | 1.2 | 0.819 | 0.858
NCI-H1437 | 1.12 | 0.782 | 1.15 | 0.94 | 0.969 | 0.752 | 0.813 | 0.771 | 0.667 | 0.653 | 0.581 | 0.526 | 0.596 | 0.495 | 0.498 | 0.925 | 0.763 | 0.94 | 0.878 | 0.653
NCI-H1651 | 1.02 | 0.565 | 1.07 |  | 1.02 | 0.639 | 0.558 | 0.564 | 0.539 | 0.483 | 0.628 | 0.664 | 0.69 | 0.637 | 0.518 | 1.01 | 0.77 | 1.07 |  | 0.816
